According to the NIST ThermoML archive (doi:10.1016/j.fluid.2010.03.010):
Numbers after ± are expanded uncertainties.

Experiment: molar heat capacity at constant pressure
Conditions: 101.33 kPa, Liquid, Differential Scanning Calorimetry

| SMILES | molar heat capacity at constant pressure (308.16 K) | molar heat capacity at constant pressure (313.16 K) | molar heat capacity at constant pressure (318.16 K) | molar heat capacity at constant pressure (323.16 K) | molar heat capacity at constant pressure (328.22 K) | molar heat capacity at constant pressure (333.22 K) | molar heat capacity at constant pressure (338.19 K) | molar heat capacity at constant pressure (343.18 K) | molar heat capacity at constant pressure (348.25 K) | molar heat capacity at constant pressure (353.18 K) | molar heat capacity at constant pressure (358.25 K) | molar heat capacity at constant pressure (363.18 K) |
| --- | --- | --- | --- | --- | --- | --- | --- | --- | --- | --- | --- | --- |
| CCCCn1cc[n+](C)c1.N#CN=C=[N-] [1-butyl-3-methylimidazolium dicyanamide] | 381.78 ± 11 J/K/mol | 384.86 ± 12 J/K/mol | 382.81 ± 11 J/K/mol | 386.92 ± 12 J/K/mol | 386.92 ± 12 J/K/mol | 388.97 ± 12 J/K/mol | 391.02 ± 12 J/K/mol | 392.05 ± 12 J/K/mol | 394.1 ± 12 J/K/mol | 395.13 ± 12 J/K/mol | 396.15 ± 12 J/K/mol | 399.23 ± 12 J/K/mol |
| CCOS(=O)(=O)[O-].CCn1cc[n+](C)c1 [1-ethyl-3-methylimidazolium ethyl sulfate] | 393.42 ± 12 J/K/mol | 396.97 ± 12 J/K/mol | 399.33 ± 12 J/K/mol | 402.06 ± 12 J/K/mol | 405.24 ± 12 J/K/mol | 406.42 ± 12 J/K/mol | 408.78 ± 12 J/K/mol | 411.14 ± 12 J/K/mol | 414.69 ± 12 J/K/mol | 415.87 ± 12 J/K/mol | 418.23 ± 13 J/K/mol | 420.6 ± 13 J/K/mol |
| CCCC[n+]1ccn(C)c1.O=S(=O)([N-]S(=O)(=O)C(F)(F)F)C(F)(F)F | 573.13 ± 17 J/K/mol | 575.92 ± 17 J/K/mol | 577.32 ± 17 J/K/mol | 581.51 ± 17 J/K/mol | 584.31 ± 18 J/K/mol | 588.5 ± 18 J/K/mol | 588.5 ± 18 J/K/mol | 592.7 ± 18 J/K/mol | 595.49 ± 18 J/K/mol | 596.89 ± 18 J/K/mol | 599.68 ± 18 J/K/mol | 602.48 ± 18 J/K/mol |
